The source of these data is patent US7041690B2, “Inhibitors of HCV NS5B polymerase” (Pharmacia & Upjohn Company, LLC, priority 2002, dated 2006).

Structures are written as SMILES.

Chain of HCV NS5b RNA dependent RNA polymerase (P27958 2421-3011): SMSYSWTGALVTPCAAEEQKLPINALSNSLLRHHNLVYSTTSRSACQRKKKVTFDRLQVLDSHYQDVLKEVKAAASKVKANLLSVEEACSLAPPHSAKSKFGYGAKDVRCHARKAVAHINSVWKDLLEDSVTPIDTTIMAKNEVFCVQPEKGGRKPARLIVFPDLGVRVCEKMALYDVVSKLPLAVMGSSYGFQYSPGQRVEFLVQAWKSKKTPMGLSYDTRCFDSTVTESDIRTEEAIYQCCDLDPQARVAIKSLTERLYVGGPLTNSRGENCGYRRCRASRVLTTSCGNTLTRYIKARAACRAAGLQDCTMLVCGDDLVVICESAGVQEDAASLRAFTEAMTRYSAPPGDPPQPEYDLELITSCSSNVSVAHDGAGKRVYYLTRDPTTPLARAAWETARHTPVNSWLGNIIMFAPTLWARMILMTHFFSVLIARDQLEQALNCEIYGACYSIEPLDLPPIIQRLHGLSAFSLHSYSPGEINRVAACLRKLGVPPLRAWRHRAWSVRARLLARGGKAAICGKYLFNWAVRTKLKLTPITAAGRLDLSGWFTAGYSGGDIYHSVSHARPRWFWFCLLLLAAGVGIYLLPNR

One assay concerns the target HCV NS5b RNA dependent RNA polymerase (Hepatitis C virus genotype 1a, UniProt P27958). The assay can be described thus: HCV NS5b RNA dependent RNA polymerase inhibition (scintillation proximity assay). It counts as biochemical.
Settings: not given
As for the experimental part: Compounds of the present invention are evaluated for inhibition of HCV NS5b RNA dependent RNA polymerase activity in assays comprised of a suitable buffer (e.g. 20 mM Tris-HCl pH 7.6), primed or unprimed RNA templates, GTP, ATP, CTP, and UTP, MnCl2 or MgCl2, and reducing agent such as 10 mM dithiothreitol or 2-mercaptoethanol. The assay buffer may contain salts such as ammonium acetate, KCl, or NaCl, and nonionic or zwitterionic detergents such as Tween or CHAPS. The incorporation of nucleotides into the complementary RNA strand may be monitored by the incorporation of radiolabeled NTP (e.g. ^3H labeled GTP). Suitable RNA templates for de novo initiation in the presence of 20–50 μM GTP or ATP are the homopolymers poly rC and poly rU, respectively. Heteropolymer RNA templates with 1–3 cytidine (C) bases or 1–3 uridine (U) bases at the 3′ terminus of the template may also be used for de novo initiation. Primed RNA templates such as poly rC primed with oligo rG or oligo dG, and poly rA primed with oligo rU may also be used to detect polymerase activity. The primers may be any length greater than 10 bases. A biotin residue may be added to the 5′ end of the template or the 5′ end of the primer to capture the template and the newly synthesized, complementary strand on avidin coated spheres. One embodiment of this technology consists of a mixture of NS5b polymerase, a poly rC RNA template primed with 5′ biotinylated oligo rG, 20 mM Tris HCl pH 7.6, 100 mM ammonium acetate, 10 mM dithiothreitol, 2 mM CHAPS, 1 mM MgCl2, and 150–200 nM ^3H labeled GTP. Test compounds (inhibitors) may be incorporated in the reaction mixture with up to 10% DMSO. The reaction is run for various times (1–180 minutes) at 22–37° C., and stopped by the addition of 10–140 mM EDTA. Scintillation Proximity Assay avidin-coated beads (Amersham Pharmacia Biotech) are added to capture the ds RNA product; or the reaction mixtures may be transferred to avidin coated Flash Plates (Perkin Elmer Life Sciences). The incorporation of radiolabeled GTP into the complementary strand is measured in 96, 384, or 1536 well plates in scintillation counters such as the Wallac Microbeta and Packard TopCount.
On the technique in general: Scintillation proximity formats need no separation of bound from free tracer.
In turn, `Cc1ccccc1-c1ccc(/C=C(\NC(=O)c2ccccc2)C(=O)O)o1` [Compound 2] displayed an IC50 of less than 10 µM.

The assay is the same for the next values; noted with them: concentration for 50% inhibition, class symbols; read-out: NS5B Inhibitory Activity.
In the case of `O=C(O)/C(=C/c1cnc(-c2ccccc2Cl)[nH]1)NC(=O)c1ccccc1` [Compound 12], the IC50 was greater than 30 µM. In the case of `O=C(O)/C(=C/c1cccc(Oc2ccccc2Cl)c1)NC(=O)c1ccccc1` [Compound 1], the IC50 is less than 10 µM. Consider `O=C(O)/C(=C/c1ccc(Oc2ccccc2Br)cc1)NC(=O)c1ccccc1` [Compound 13], for which the IC50 was less than 10 µM. The same measure, in the same setting: the same measure for `Cc1ccc(COc2ccc(/C=C(\NC(=O)c3ccccc3)C(=O)O)cc2)cc1` [Compound 3]: 11 to 30 µM; for `O=C(O)/C(=C/c1ccc(Nc2ccccc2Cl)cc1)NC(=O)c1ccccc1` [Compound 6]: 11 to 30 µM; for `CCS(=O)(=O)c1ccc(-c2ccc(/C=C(\NC(=O)c3ccccc3)C(=O)O)o2)cc1` [Compound 7]: greater than 30 µM. As to `O=C(O)/C(=C/c1csc(-c2ccccc2Cl)n1)NC(=O)c1ccccc1` [Compound 9], the IC50 was less than 10 µM.

With `O=C(O)/C(=C/c1ccc(-c2ccc3c(c2)OCO3)o1)NC(=O)c1ccccc1` [Compound 4], the IC50 was less than 10 µM. On to `O=C(O)/C(=C/c1ncc(-c2ccccc2)o1)NC(=O)c1ccccc1` [Compound 10], for which the IC50 is less than 10 µM. Consider `O=C(O)/C(=C/c1ccc(F)c(-c2ccccc2Cl)c1)NC(=O)c1ccccc1` [Compound 8], for which the IC50 was less than 10 µM. Turning to `O=C(O)/C(=C/c1ccc(-c2cc3ccccc3s2)o1)NC(=O)c1ccccc1` [Compound 5], the IC50 lay in the range of 11 to 30 µM. On to `O=C(O)/C(=C/c1cccc(-c2cccnc2)c1)NC(=O)c1ccccc1` [Compound 11], for which the IC50 was greater than 30 µM.
